Assay results: US9999626B2, “Mineral amino-acid complexes of active agents” (Thetis Pharmaceuticals LLC, priority 2014, dated 2018)

Key:
[1] = Physical Stability Study (proton NMR after storage exposed to air); type: physicochemical; conditions: room temperature
Excerpt: FIG. 1: […] NMR spectrum of magnesium bis-lysinate bis-EPA taken on the day the compound was synthesized (upper trace) and 60 days later (lower trace) with the compound having been exposed to air at room temperature for the entire 60-day period.
Since the compounds of Formula IA and IB, and the compositions comprising same or mixtures of same, described herein are solids (not oils) and they are very stable against oxidative degradation of the fatty acid component, particularly when compared to the free fatty acid or fatty acid ester forms of the fatty acids, which are highly susceptible to oxidative degradation in their liquid forms and consequently tend to degrade when exposed to air or humidity. […] This is evidenced, for example by no significant change in physical properties, such as flow characteristics, or in chemical properties, as measured by NMR spectroscopy, following days of storage in an open vial at room temperature and standard humidity, for example following from about 7 to 14 days or up to 30, up to 60, or up to 90 days of storage.
The compounds of the invention are remarkably stable compared to omega-3 polyunsaturated free fatty acids, which typically show evidence of oxidative degradation with hours of exposure to atmospheric oxygen. […]

[2] = parameters: species or system rats; conditions: rat, in vivo, po
Excerpt: The results of a single dose, oral pharmacokinetic study in rats for a compound of Formula III (designated TP-252, Mg-Lys2-EPA2) are shown in Table 3 below. One of the parameters shown in […] is the area under the curve (AUC), which is the integral of a plot of concentration of drug in blood plasma against time. The AUC is proportional to the total amount of the active pharmaceutical agent (API) that reaches the blood circulation. In this example, the API (or analyte) is EPA. AUC and Cmax are given for the compound of Formula III, EPA free fatty acid (EPA FFA), and EPA ethyl ester (EPA EE). EPA ethyl ester is the FDA-approved form of EPA.

- chemically stable (no evidence of oxidation or degradation by proton NMR) [1]: at least 60 days
- EPA delivered to the blood plasma compared with equivalent doses of EPA free fatty acid or EPA ethyl ester [2]: significantly more EPA
SMILES: CC/C=C\C/C=C\C/C=C\C/C=C\C/C=C\CCCC(=O)O.CC/C=C\C/C=C\C/C=C\C/C=C\C/C=C\CCCC(=O)O.NCCCC[C@H](N)C(=O)[O-].NCCCC[C@H](N)C(=O)[O-].[Mg+2] [TP-252, Magnesium Bis-Lysinate Bis-EPA Dihydrate]
